Where a name gives a salt, the structure may show the parent alone.

As a reminder, the CC50 is the concentration at which the toxic effect on the cells reaches its halfway point.

The data set in a line: in vitro. Particulars: rat, gh3-tre-luc cells.

Under “AC50 (uM) modified / 1000”, `CN(C)c1ccc(C=O)cc1` [4-Dimethylaminobenzaldehyde] registered a CC50 at 24 h of over 90 µM.

`O=C(Cl)C(Cl)Cl` [Dichloroacetyl chloride] showed a CC50 at 24 h (AC50 (uM) modified / 1000, Tox21_110001=Tox21_200778, viability, 1 nM T3 present, 24 h) of over 90 µM. Consider `O=C(O)CCCCCCCCCCCBr` [12-Bromododecanoic acid], for which the CC50 at 24 h (AC50 (uM) modified / 1000) is over 90 µM. Same read-out and setting: as for `OCC1(O)OC[C@@H](O)[C@@H](O)[C@@H]1O` (stereo partly drawn) [D-Fructose], the figure is over 50 µM.

Molecule `NS(=O)(=O)c1cc2c(cc1Cl)N=CNS2(=O)=O` [Chlorothiazide] came in with a CC50 at 24 h (AC50 (uM) modified / 1000) of over 90 µM. Same read-out and setting: as for `CC[N+](CC)(CC)CC` [Tetraethylammonium chloride], the figure is over 100 µM; as for `O=C(Nc1ccc2[nH]ccc2c1)c1cc2cc(F)ccc2n1Cc1cccc(F)c1` [SAR115740], 14.6 µM. Still for that read-out and setting: as for `C[Si]1(C)O[Si](C)(C)O[Si](C)(C)O[Si](C)(C)O[Si](C)(C)O1` [Decamethylcyclopentasiloxane], the figure is over 90 µM. `COC(C=C(C)CCC=C(C)C)OC` [1,1-Dimethoxy-3,7-dimethylocta-2,6-diene] displayed a CC50 at 24 h (AC50 (uM) modified / 1000) of over 90 µM. In the case of `COc1c2ccoc2cc2oc(=O)ccc12` [5-Methoxypsoralen], the CC50 at 24 h (AC50 (uM) modified / 1000) was over 90 µM.

With `CC1(C)[C@H](C=C(Cl)Cl)[C@H]1C(=O)OCc1c(F)c(F)cc(F)c1F` [Transfluthrin], for the setting “AC50 (uM) modified / 1000”, the CC50 at 24 h is over 50 µM.

The molecule `Nc1ccc(C(=O)O)c(O)c1` [Sodium 4-aminosalicylate] displayed a 50% cytotoxic concentration (CC50) at 24 h (AC50 (uM) modified / 1000) of over 50 µM. In the case of `FC(F)C(F)(F)OCC(Cn1cncn1)c1ccc(Cl)cc1Cl` (centres unmarked) [Tetraconazole], for the setting “AC50 (uM) modified / 1000”, the CC50 at 24 h is over 90 µM.

The molecule `CC(C)(C)CC(C)(C)c1ccccc1O` [(1,1,3,3-Tetramethylbutyl)phenol (all isomers)] had a CC50 at 24 h (AC50 (uM) modified / 1000) of 31.1 µM. On to `C=C(C)C(=O)OCC(C)O` (centres unmarked) [2-Hydroxypropyl 2-methylacrylate], for which the CC50 at 24 h (AC50 (uM) modified / 1000) was over 90 µM.

Take `O=Cc1cccc(Br)c1` [3-Bromobenzaldehyde]: the CC50 at 24 h (AC50 (uM) modified / 1000) was over 90 µM.

Turning to `CCCCN=C=O` [Butyl isocyanate], the CC50 at 24 h (AC50 (uM) modified / 1000) is over 90 µM. Same read-out and setting: the result for `C=CCOCC(CC)(CO)COCC=C` [2,2-Bis[(prop-2-en-1-yloxy)methyl]butan-1-ol] reads over 90 µM; that for `COCCOC(=O)CC#N` [2-Methoxyethyl cyanoacetate], over 90 µM; that for `COc1ccccc1C=CC=O` [2-Methoxycinnamaldehyde], 77.5 µM.

`C[N+](C)(C)CC(O)CCl` (centres unmarked) [Dextrosil] gave a CC50 at 24 h (AC50 (uM) modified / 1000) of over 90 µM.

`CCCCCCCCCCC(=O)O` [Undecanoic acid] showed a CC50 at 24 h (AC50 (uM) modified / 1000) of over 90 µM. Where the note is “AC50 (uM) modified / 1000”, `CC1(C)S[C@@H]2[C@H](NC(=O)C(c3ccccc3)S(=O)(=O)O)C(=O)N2[C@H]1C(=O)O` (some centres unmarked) [Sulbenicillin disodium] came in with a CC50 at 24 h of over 50 µM. Where the note is “AC50 (uM) modified / 1000”, `C=COCC1CCC(CO)CC1` (centres unmarked) [{4-[(Ethenyloxy)methyl]cyclohexyl}methanol] showed a CC50 at 24 h of over 90 µM. Regarding `Cc1cccc([N+](=O)[O-])c1C` [1,2-Dimethyl-3-nitrobenzene], the CC50 at 24 h (AC50 (uM) modified / 1000) was over 90 µM. In turn, `CO/C=C(/C(=O)OC)c1ccccc1Oc1cc(Oc2ccccc2C#N)ncn1` [Azoxystrobin] registered a CC50 at 24 h (AC50 (uM) modified / 1000) of over 100 µM. On the same count and under the same terms, as for `CC(C)CCOC(=O)c1ccc(N(C)C)cc1` [Padimate], the figure is over 50 µM; as for `CC1=CC(=O)CC(C)(C)C1=O` [2,6,6-Trimethyl-2-cyclohexene-1,4-dione], over 90 µM; as for `CC(C)CCOC(=O)c1ccccc1` [Isopentyl benzoate], over 90 µM. Same read-out and setting: the result for `OC[C@H]1O[C@@H](n2cnc3c(S)ncnc32)[C@H](O)[C@@H]1O` [Thioinosine] reads over 50 µM. Still for that read-out and setting: the result for `CC(C)CN(C[C@@H](O)[C@H](Cc1ccccc1)NC(=O)O[C@H]1CO[C@H]2OCC[C@H]21)S(=O)(=O)c1ccc(N)cc1` [Darunavir] reads over 50 µM. The molecule `NC[C@@H]1O[C@H](O[C@H]2[C@@H](O)[C@H](O[C@@H]3[C@@H](O)[C@H](N)C[C@H](N)[C@H]3O[C@H]3O[C@H](CN)[C@@H](O)[C@H](O)[C@H]3N)O[C@@H]2CO)[C@H](N)[C@@H](O)[C@@H]1O` [Neomycin sulfate] displayed a cytotoxic concentration (CC50) at 24 h (AC50 (uM) modified / 1000) of over 50 µM.

The values above are taken from PMC6792352, “Limited Chemical Structural Diversity Found to Modulate Thyroid Hormone Receptor in the Tox21 Chemical Library” (Environmental Health Perspectives, 2019).
